Like-named read-outs stand apart in the source and are kept apart here.
Assays:
[1] = Growth inhibition assay (microtiter plate-based synergy assay); assay type: cell-based; details: 24 hr, read-out: Percent inhibition of growth; for inhibition at 0.2 ppm: 0.20 ppm; for inhibition at 12.5 ppm: 12.50 ppm
Procedure: (§1) The assay of this Example measures the efficacy of the biocides at preventing growth of a consortium of bacteria in a dilute mineral salts medium. The medium contains (in mg/l) the following components: FeCl3.6H2O (1); CaCl2.2H2O (10); MgSO4.7H2O (22.5); (NH4)2SO4 (40); KH2PO4 (10); K2HPO4 (25.5); Yeast Extract (10); and glucose (100). After all components are added to deionized water, the pH of the medium is adjusted to 7.5. Following filter sterilization, aliquots are dispensed in […] quantities to sterile microtiter plate wells. Dilutions of 2,2-dibromomalonamide (“DBMAL”) and/or “Biocide B” are then added to the microtiter plate. After preparing the combinations of actives as illustrated below, each well is inoculated with 100 μl of a cell suspension containing ca. 1×10^6 cells per milliliter of a mixture of Pseudomonas aeruginosa, Klebsiella pneumoniae, Staphylococcus aureus, and Bacillus subtilis. The final total volume of medium in each well is 300 μl. Once prepared as described herein, the concentration of each active ranges from 25 ppm to 0.195 ppm as illustrated in Table 1. The resulting matrix allows testing of eight concentrations of each active and 64 combinations of actives at varying ratios.
(§2) Controls (not shown) contain the medium with no biocide added. Immediately after the microtiter plates are prepared, the optical density (OD) readings for each well are measured at 600 nm and the plates are then incubated at 37° C. for 24 hr. After the incubation period, the plates are gently agitated before OD values are collected. The OD values at t(0) are subtracted from t(24) values to determine the total amount of growth (or lack thereof) that occurs. These values are used to calculate the percent inhibition of growth caused by the presence of each biocide and each of the 64 combinations.
(§3) where • MDBMAL: Concentration of DBMAL required to inhibit ˜90% of bacterial growth when used in combination with DBNPA. • CDBMAL: Concentration of DBMAL required to inhibit ˜90% of bacterial growth when used alone. • MDBNPA: Concentration of DBNPA required to inhibit ˜90% of bacterial growth when used in combination with DBMAL. • CDBNPA: Concentration of DBNPA required to inhibit ˜90% of bacterial growth when used alone. The SI values are interpreted as follows: • SI<1: Synergistic combination • SI=1: Additive combination • SI>1: Antagonistic combination
(§4) In the Example, the amounts of biocides in the solution are measured in mg per liter of solution (mg/l). Since solution densities are approximately 1.00, the mg/l measurement corresponds to weight ppm. Both units may therefore be used interchangeably in the Examples.

[2] = tested on: consortium of bacteria: mixture of Pseudomonas aeruginosa, Klebsiella pneumoniae, Staphylococcus aureus, and Bacillus subtilis; assay: as above; assay type: cell-based; details: used alone, 24 hr
Procedure: as §1, §2, §3, §4

[3] = cited from earlier work

Row | Compound | inhibition at 0.2 ppm ([1]; DBMAL alone) [%] | inhibition at 1.56 ppm ([1]; DBMAL alone) [%] | inhibition at 6.25 ppm ([1]; DBMAL alone) [%] | inhibition at 12.5 ppm ([1]; DBMAL alone) [%] | inhibition at 25 ppm ([1]; DBMAL alone) [%] | inhibition at 0.2 ppm ([1]; DBNPA alone) [%] | inhibition at 0.39 ppm ([1]; DBNPA alone, 0.39 ppm) [%] | inhibition at 0.78 ppm ([1]; DBNPA alone, 0.78 ppm) [%] | inhibition at 1.56 ppm ([1]; DBNPA alone) [%] | inhibition at 3.13 ppm ([1]; DBNPA alone, 3.13 ppm) [%] | inhibition at 6.25 ppm ([1]; DBNPA alone) [%] | inhibition at 12.5 ppm ([1]; DBNPA alone) [%] | inhibition at 25 ppm ([1]; DBNPA alone) [%] | Minimum concentration that caused ~90% inhibition of growth (CDBNPA) [2] [mg/L] | factor of increase of rate of disappearance ([3]; going from pH 6 to pH 8.9) | half life (hydrolytic degradation) ([3]; pH 8) [h] | half life (hydrolytic degradation) ([3]; pH 11.3) [h]
1 | NC(=O)C(Br)(Br)C(N)=O [DBMAL, 2,2-dibromomalonamide] | 0 | 11 | 38 | 92 | 96 |  |  |  |  |  |  |  |  |  |  |  | 
2 | N#CC(Br)(Br)C(N)=O [DBNPA, 2,2-dibromo-3-nitrilopropionamide] |  |  |  |  |  | 0 | 0 | 0 | 75 | 98 | 82 | 88 | 96 | 3.13 | about 450 | 2 | 0.00694

— patent publication US8852619B2, “Compositions of dibromomalonamide and their use as biocides” (Dow Global Technologies LLC, priority 2009, dated 2014)
